From the supplement of paper PMC11208160

Experiment: recombinant UMI read abundance after kanamycin selection (control-corrected) (log10(CPM+1)); higher = more efficient recombination; extreme values may be limits of the assay; sequences stand for … in AGTGCAGAGAAAATCGGCCAGTTTTCTCTGCCTGCAGTCCGCATGCCGTGGGACCCCTTGGGTTCTAACCTGTTGCCTAGATTTATGCAGCGGACTGCCTTTCTCCCAAAGTGATAAACCGG…AGGTTGGTTTCACT; site = the 11-nt donor
How it was run: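 For the IS621 bridge recombinase, a pooled Escherichia coli screen tested donor and donor-binding-loop pairs. Cells received the pair library together with a target plasmid encoding a fixed target and T7-inducible recombinase, then went onto IPTG (0.07 mM) plus kanamycin or unselected plates in duplicate. After PCR across the donor–target junction and sequencing, recombinant UMI counts were normalized to CPM, averaged, and scaled by control-derived factors. Each value is given as log10(CPM+1).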
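Note: IS621 bridge recombinase in Escherichia coli cells against a fixed T5 target plasmid.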

| Sequence | recombinant UMI read abundance (log10) |
| --- | --- |
| CGTGGAGCATGGACCGGTTTTCCCGGTAATCCGTATTTGTT (site CGTGGACCTAA) | 0.00893 |
| CGTGGAGCATGGACCGGTTTTCCCGGTAATCCGTATTTGTT (site CGTGGAGCTAA) | 2.02 |
| CGTGGAGCATGGACCGGTTTTCCCGGTAATCCGTATTTGTT (site CGTGGATCTAA) | 1.23 |
| CGTGGATCATGGACCGGTTTTCCCGGTAATCCGTATTTGTT (site CGTGGAACTAA) | 0.0027 |
| CGTGGATCATGGACCGGTTTTCCCGGTAATCCGTATTTGTT (site CGTGGACCTAA) | 0.0255 |
| CGTGGATCATGGACCGGTTTTCCCGGTAATCCGTATTTGTT (site CGTGGAGCTAA) | 0 |
| CGTGGATCATGGACCGGTTTTCCCGGTAATCCGTATTTGTT (site CGTGGATCTAA) | 2.34 |
| CGTGGTACATGGACCGGTTTTCCCGGTAATCCGTATTTGTT (site CGTGGAACTAA) | 0.177 |
| CGTGGTACATGGACCGGTTTTCCCGGTAATCCGTATTTGTT (site CGTGGCACTAA) | 0.0912 |
| CGTGGTACATGGACCGGTTTTCCCGGTAATCCGTATTTGTT (site CGTGGGACTAA) | 0 |
| CGTGGTACATGGACCGGTTTTCCCGGTAATCCGTATTTGTT (site CGTGGTACTAA) | 1.25 |
| CGTGTGGCATGGACCGGTTTTCCCGGTAATCCGTATTTGCT (site CGTATGGCTAG) | 1.01 |
| CGTGTGGCATGGACCGGTTTTCCCGGTAATCCGTATTTGCT (site CGTCTGGCTAG) | 0.00526 |
| CGTGTGGCATGGACCGGTTTTCCCGGTAATCCGTATTTGCT (site CGTGTGGCTAG) | 3.26 |
| CGTGTGGCATGGACCGGTTTTCCCGGTAATCCGTATTTGCT (site CGTTTGGCTAG) | 0 |
| CGTGTTGCATGGACCGGTTTTCCCGGTAATCCGTATTTGTC (site CGTGTTGCTGA) | 2.08 |

| Sequence | recombinant UMI read abundance (log10) |
| --- | --- |
| CGTTAGGCATGGACCGGTTTTCCCGGTAATCCGTATTTGAG (site CGTTAGACTCT) | 0.855 |
| CGTTAGGCATGGACCGGTTTTCCCGGTAATCCGTATTTGAG (site CGTTAGCCTCT) | 0.00789 |
| CGTTAGGCATGGACCGGTTTTCCCGGTAATCCGTATTTGAG (site CGTTAGGCTCT) | 1.23 |
| CGTTAGGCATGGACCGGTTTTCCCGGTAATCCGTATTTGAG (site CGTTAGTCTCT) | 0.173 |
| CGTTATCCATGGACCGGTTTTCCCGGTAATCCGTATTTGTT (site CGGAATCCTAA) | 0 |
| CGTTATCCATGGACCGGTTTTCCCGGTAATCCGTATTTGTT (site CGTTATCCTAA) | 0.375 |
| CGTTCATCATGGACCGGTTTTCCCGGTAATCCGTATTTGCT (site CGATCATCTAG) | 0 |
| CGTTCATCATGGACCGGTTTTCCCGGTAATCCGTATTTGCT (site CGCTCATCTAG) | 1.41 |
| CGTTCATCATGGACCGGTTTTCCCGGTAATCCGTATTTGCT (site CGGTCATCTAG) | 0 |
| CGTTCATCATGGACCGGTTTTCCCGGTAATCCGTATTTGCT (site CGTTCATCTAG) | 1.35 |
| CGTTCCCCATGGACCGGTTTTCCCGGTAATCCGTATTTGTA (site AGTTCCCCTTA) | 0.00297 |
| CGTTCCCCATGGACCGGTTTTCCCGGTAATCCGTATTTGTA (site CGTTCCCCTTA) | 0.531 |
| CGTTCCCCATGGACCGGTTTTCCCGGTAATCCGTATTTGTA (site GGTTCCCCTTA) | 0.00349 |
| CGTTCCCCATGGACCGGTTTTCCCGGTAATCCGTATTTGTA (site TGTTCCCCTTA) | 0.00473 |
| CGTTCGGCATGGACCGGTTTTCCCGGTAATCCGTATTTGCT (site CGTTAGGCTAG) | 0.00568 |
| CGTTCGGCATGGACCGGTTTTCCCGGTAATCCGTATTTGCT (site CGTTCGGCTAG) | 1.63 |
